According to patent US20040038958A1, “Topical treatment of skin diseases” (priority 2002, published 2004):
Values joined by “and” are separate entries in the source; they are usually repeats but may differ in a detail not shown here. Equal entries are not always repeated. “Also recorded” adds a separate entry of the source.

Columns and labels:
[1] = Penetration of 14C AWD 12-281 through murine back skin (Franz diffusion cell); assay type: in vitro ADME, mouse
Protocol: FIG. 1: Cutaneous permeation of ^14C AWD 12-281 measured using a “Franz” diffusion cell and murine back skin. Activity of ^14C AWD 12-281 was measured in […] during 360 min incubation. Results of two independent experiments. 15 μl (110322970 dpm) of ^14C AWD 12-281 (dissolved in acetone/DMSO 1:1) was applied to the shaved skin.
The ability of ^14C AWD 12-281 to penetrate through murine back skin was tested in a diffusion cell (Franz cell). Dry shaved murine back skin was set onto the diffusion cell so that 1.5 cm (diameter) of the dermal side were in contact with warmed (34° C.) buffer (bovine serum). 15 μl (110322970 dpm) of ^14C AWD 12-281 (dissolved in acetone/DMSO 1:1) were applied to the shaved skin. Samples were taken 15, 60, 120, 180, 240, 300, 360 min and the radioactivity was measured in a β counter (Beckman, Munich, Germany). The experiment was performed twice.

mice sensitized to TDI = assay: Mouse ear swelling test in mice sensitized to toluene-2,4-diisocyanate (TDI), topical application; assay type: in vivo, BALB/c-mice; settings: for TDI-induced ear swelling: AWD 12-281 1%, cilomilast 3%, diflorasone 0.05%
Protocol: FIG. 6: Effect of PDE 4 inhibitors on TDI induced ear swelling in mice. […] After 1 h (grey bars) groups of mice were treated with 3% AWD 12-281, 10% cilomilast or left untreated (TDI). After 24 h, ear swelling was determined (black bars). […] Female BALB/c-mice were obtained from Charles River (Sulzfeld, Germany) at the age of 8 weeks (20 g body weight). All animals were healthy and were housed in groups of six mice per cage at 22° C. with a 12-h light/dark-cycle. Water and a standard diet (Altromin, […], Germany) were available ad libitum. After settling in for 1 week, the abdominal skin of the mice was shaved and depilated with Veet®. Subsequently, the horny layers of the abdominal skin were stripped off ten times with adhesive tapes. […] Before as well as 24 h after challenge, the ear thickness was measured with a cutimeter (model 7309, Mitutoyo, Neuss, Germany) The swelling was calculated by comparison of the values before challenge with 24 h after challenge. […] The other mice were equally distributed to the treatment groups (n=6) according to their swelling intensity, so that each group contained animals which had responded to varying extents. They had to rest until the ear thickness had reached almost a normal level after 7 days. To exclude residues of the allergen on the ears, the untreated right ears were used for the main experiment. One group of mice (n=6) was not sensitized and challenged. […] Two hours before TDI-challenge, the third and fourth group (each n=6) were treated with 20 μl (10 μl on both, the inner and outer surface) AWD 12-281 (1%=200 μg) or 20 μl cilomilast (3%=600 μg; each in acetone/DMSO 9:1) to the right ears. […] These mice were sacrificed by cervical dislocation 24 hours after TDI challenge and the ears were collected (see below). […] Five weeks after the first challenge, the animals treated with AWD 12-281 (1%) and cilomilast (3%) “therapeutically” were challenged again. Before challenge, one group was treated with AWD 12-281 (3%).

[2] = test system: granulocyte influx in the dermis of mice ears; assay: Histological examination of mouse ear skin after TDI challenge; assay type: in vivo, BALB/c-mice
Protocol: (§1) One part of the collected ears was fixed in 4% formaldehyde for histological section and stained with haematoxylin-eosin with respect to dermal thickness and granulocyte accumulation. These parameters were measured in 10 fields at 40 times magnification. The remaining tissue was shock-frozen and stored in liquid nitrogen immediately after sampling. For the determination of biochemical parameters, the mice ears were homogenized under liquid nitrogen. The homogenates were taken in 200 μl RPMI 1640 medium and the protease inhibitor Pefabloc® (1 mmol) was added and the samples were mixed intensively. After centrifugation (10000 g, 10 min, 4° C.), the supernatant was collected and the protein content was determined. The samples were stored at −80° C. until the cytokines were determined. Interleukin (IL) 4, IL-6 and MIP-2 were measured in the samples by ELISA using commercially available kits according to manufacturers instructions.

interleukin 4 = assay: IL-4 in homogenized mouse ears after TDI challenge (ELISA); assay type: in vivo, BALB/c-mice
Protocol: as §1

interleukin 6 = assay: IL-6 in homogenized mouse ears after TDI challenge (ELISA); assay type: in vivo, BALB/c-mice
Protocol: as §1

[3] = test system: macrophage inflammatory protein 2; assay: MIP-2 in homogenized mouse ears after TDI challenge (ELISA); assay type: in vivo, BALB/c-mice
Protocol: as §1

PDE4 = settings: Griswold et al., 1998, Kuss et al., 2002; cited from earlier work
[4] = test system: passively sensitized human airways; settings: Schmidt et al., 2000; cited from earlier work
[5] = test system: sensitized Brown Norway rats; settings: late phase airway reaction to antigen; Kuss et al., 2002; cited from earlier work
domestic pigs = settings: Kuss et al., 2002; cited from earlier work
[6] = 24 h after TDI challenge, AWD 12-281 3%, rechallenge
[7] = 24 h after TDI challenge, topical 2 h before challenge, AWD 12-281 1%, cilomilast 3%, diflorasone 0.05%
[8] = AWD 12-281 3%, cilomilast 3%, diflorasone 0.05%, 24 h after TDI challenge

O=C(Nc1c(Cl)cncc1Cl)C(=O)c1cn(Cc2ccc(F)cc2)c2ccc(O)cc12 [AWD 12-281, N-(3,5-Dichloro-4-pyridinyl)-2-[1-(4-fluoro-benzyl)-5-hydroxy-1 H-indol-3-yl]-2-oxoacetamide]
amount of radioactivity measured in buffer, % of the total activity (cumulative absorption) ([1]; 14C AWD 12-281 in acetone/DMSO 1:1 on shaved murine back skin, 360 min (6 h) after application, two independent experiments): 0.22% and 0.08%
absorption compared to hydrocortisone ([1]; AWD 12-281 murine skin after 6 h vs hydrocortisone in human skin in Franz cells (Hueber et al., 1994)): tenfold higher absorption compared to hydrocortisone
Ear swelling (%) (mice sensitized to TDI; AWD 12-281 3% topical before challenge, rechallenge five weeks after first challenge, 24 h after TDI challenge, vehicle control 51 ± 7, mean ± s.e.): 1 ± 2 %
TDI-induced ear swelling (mice sensitized to TDI; single topical application 2 h before TDI challenge, 1, 5 and 24 h after challenge): inhibited the TDI-induced swelling significantly at all measured times
TDI-induced ear swelling (mice sensitized to TDI; topical 1 h after TDI challenge (therapeutic), 24 h after challenge): reduced the inflammatory response to TDI significantly; also recorded: inhibited the TDI induced ear swelling significantly
TDI-induced ear swelling (mice sensitized to TDI; topical 1 h after TDI challenge (therapeutic), 24 h after challenge, listed as AWD12-281): significant inhibition of ear swelling
TDI induced ear swelling (mice sensitized to TDI; treated 1 h after 0.5% TDI, 3% AWD 12-281, 10% cilomilast, ear swelling after 24 h (FIG. 6)): reduced ear swelling significantly
inflammatory cells and vascular leakage, histological examination ([2]; AWD 12-281 (3%) treated mouse ears, long term exposure study (not shown)): nearly total absense of inflammatory cells and vascular leakage
edema and influx of inflammatory cells (mainly granulocytes) ([2]; mouse ear skin 24 h after TDI challenge, topical treatment): inhibited these inflammatory processes markedly
concentration of interleukin 4 in mouse skin (interleukin 4; [6]): inhibited the increase significantly
concentration of interleukin 4 in homogenized mouse ears (interleukin 4; [7]): reduced the increase slightly; also recorded: slight inhibitory effect
IL-4, mean inhibition (%) of the TDI induced synthesis (interleukin 4; [8]): 80% and 81%
IL-4 (interleukin 4; AWD 12-281 3%, homogenized mouse ears 24 h after TDI challenge (rechallenge), vehicle control 67 ± 2, mean ± s.e.): 12 ± 3 pg/400 µg protein
concentration of interleukin 6 in mouse skin (interleukin 6; [6]): inhibited this response significantly
concentration of interleukin 6 in homogenized mouse ears (interleukin 6; [7]): weak significantly; also recorded: inhibited this response significantly; also recorded: only a slight effect
IL-6, mean inhibition (%) of the TDI induced synthesis (interleukin 6; [8]): 52%
IL-6 (interleukin 6; AWD 12-281 3%, homogenized mouse ears 24 h after TDI challenge (rechallenge), vehicle control 89 ± 5, mean ± s.e.): 42 ± 6 pg/400 µg protein
concentration of MIP-2 in mouse skin [3, 6]: diminished the increase of the MIP-2 concentration significantly
concentration of macrophage inflammatory protein 2 in homogenized mouse ears [3, 7]: reduced the increase slightly; also recorded: reduced this increase slightly
MIP-2, mean inhibition (%) of the TDI induced synthesis [3, 8]: 75%
MIP-2 ([3]; AWD 12-281 3%, homogenized mouse ears 24 h after TDI challenge (rechallenge), vehicle control 286 ± 39, mean ± s.e.): 72 ± 8 pg/400 µg protein
IC50 for PDE4 relative to cilomilast (PDE4): about ten times lower than that of cilomilast
bronchospasmogenic effect of an allergen [4]: significantly reduced the bronchospasmogenic effect of an allergen
accumulation of eosinophils in bronchoalveolar lavage [5]: significantly reduced the accumulation of eosinophils
LPS induced lung neutrophilia (domestic pigs): inhibitory effects
